# Where “and” joins values, the source holds several entries; their conditions need not be identical. Identical values can stand only once. Entries after “also recorded” stand apart in the source; their conditions may differ. Like-named read-outs stand apart in the source and are kept apart here.
# Assays:
# [1] = biological target: T1, WT AtAHAS (Arabidopsis thaliana, UniProt P17597); conditions: cited from earlier work
# [2] = biological target: T1, WT AtAHAS; assay type: biochemical; conditions: for k3 (rate of recovery) / kiapp (apparent rate of enzyme inactivation): 160 mM pyruvate, 30 °C, ± SEM; for k3, single progress curve (Supplementary Figure 8) / kiapp, single progress curve (Supplementary Figure 8): individual replicate of triplicate
# Protocol: (§1) Standard assays were performed using a continuous spectrophotometric method measuring the disappearance of pyruvate. The standard buffer contained 50 mM potassium phosphate, pH 7.2, 1 mM ThDP, 10 mM MgCl2, and 10 µM FAD. The concentration of pyruvate was in the range 100–160 mM, as described in the text, methods, or figure legends.
# (§2) AtAHAS was assayed in the standard assay buffer containing 160 mM pyruvate, at 30 °C. For AtAHAS activation the progress curve corresponding to the lag-phase was fitted to Eq. (8) of Lonhienne et al.[14]. For the time dependent accumulative inhibition of AtAHAS the progress curves were fitted to Equation 9 of Lonhienne et al.[12].
# (§3) Supplementary Figure 8. Measurement of the rate constants of accumulative inhibition for WT AtAHAS and its mutants. The progress curves were fitted to the equation of accumulative inhibition (Equation 7 2). The rate constants of enzyme inactivation ( kiapp) and enzyme recovery (k3) were measured in triplicate. Source data are provided with this paper.
# [3] = biological target: T2, AtAHAS W574L mutant (Arabidopsis thaliana, UniProt P17597, W574L); assay: biochemical; conditions: for increase in Ki / loss of affinity compared to WT: W574L vs WT
# Protocol: as §1
# (§4) Supplementary Figure 6. Measurement of the Ki values for WT AtAHAS and the mutants.
# (§5) The error bars represent the standard error of the mean of two independent replicates. [I] =
# (§6) inhibitor concentration. Source data are provided with this paper.
# (§7) (1 picture or pasted object on this page, not shown here)
# [4] = biological target: T3, AtAHAS P197L mutant (Arabidopsis thaliana, UniProt P17597, P197L); assay: biochemical
# Protocol: as §1, §4, §5, §6, §7
# [5] = biological target: T4, AtAHAS P197T mutant (Arabidopsis thaliana, UniProt P17597, P197T); assay: biochemical
# Protocol: as §1, §4, §5, §6, §7
# [6] = biological target: T5, AtAHAS S653T mutant (Arabidopsis thaliana, UniProt P17597, S653T); assay: biochemical
# Protocol: as §1, §4, §5, §6, §7
# [7] = biological target: T2, AtAHAS W574L mutant; assay type: biochemical; conditions: for k3 (rate of recovery) / kiapp (apparent rate of enzyme inactivation): 160 mM pyruvate, 30 °C; for k3 (rate of recovery) / kiapp (apparent rate of enzyme inactivation) / kiapp/k3 (efficiency of accumulative inhibition): NAI = no accumulative inhibition detected
# Protocol: as §1, §2
# as §3, with “paper. […]” for “paper.”
# [8] = biological target: T3, AtAHAS P197L mutant; assay type: biochemical; conditions: for k3 (rate of recovery) / kiapp (apparent rate of enzyme inactivation): 160 mM pyruvate, 30 °C; for k3 (rate of recovery) / kiapp (apparent rate of enzyme inactivation) / kiapp/k3 (efficiency of accumulative inhibition): NAI = no accumulative inhibition detected; for k3, single progress curve (Supplementary Figure 8) / kiapp, single progress curve (Supplementary Figure 8): individual replicate of triplicate
# Protocol: as §1, §2
# as §3, with “paper. […]” for “paper.”
# [9] = biological target: T4, AtAHAS P197T mutant; assay type: biochemical; conditions: for k3 (rate of recovery) / kiapp (apparent rate of enzyme inactivation) / kiapp/k3 (efficiency of accumulative inhibition) / k3, single progress curve (Supplementary Figure 8) / kiapp, single progress curve (Supplementary Figure 8): P197T; for k3 (rate of recovery) / kiapp (apparent rate of enzyme inactivation): 160 mM pyruvate, 30 °C; for k3 (rate of recovery) / kiapp (apparent rate of enzyme inactivation) / kiapp/k3 (efficiency of accumulative inhibition): NAI = no accumulative inhibition detected; for k3, single progress curve (Supplementary Figure 8) / kiapp, single progress curve (Supplementary Figure 8): individual replicate of triplicate
# Protocol: as §1, §2
# as §3, with “paper. […]” for “paper.”
# [10] = biological target: T5, AtAHAS S653T mutant; assay type: biochemical; conditions: for kiapp/k3 (efficiency of accumulative inhibition) / k3 (rate of recovery) / kiapp (apparent rate of enzyme inactivation) / k3, single progress curve (Supplementary Figure 8) / kiapp, single progress curve (Supplementary Figure 8): S653T; for k3 (rate of recovery) / kiapp (apparent rate of enzyme inactivation): 160 mM pyruvate, 30 °C, ± SEM; for k3, single progress curve (Supplementary Figure 8) / kiapp, single progress curve (Supplementary Figure 8): individual replicate of triplicate
# Protocol: as §1, §2
# as §3, with “paper. […]” for “paper.”
# [11] = ± standard error of the mean, ref Garcia et al.[13]
# [12] = Ki, W574L mutant, ± standard error of the mean
# [13] = Ki (Supplementary Figure 6), P197L, fit of % activity remaining vs [I], two independent replicates
# [14] = Ki, P197L mutant, ± standard error of the mean
# [15] = Ki (Supplementary Figure 6), P197T, fit of % activity remaining vs [I], two independent replicates
# [16] = Ki, P197T mutant, ± standard error of the mean
# [17] = Ki, S653T mutant, ± standard error of the mean
# [18] = individual replicate of triplicate
structure (smiles),measurement,setting,value
"CC(C)C1(C)N=C(c2nc3ccccc3cc2C(=O)O)NC1=O (stereo not shown) [IQ, imazaquin]",Ki,[1],18 µM
same,Ki,[1]; [11],18.5 ± 2 µM
same,accumulative inhibition (in words),[2],irreversible
same,kiapp/k3 (efficiency of accumulative inhibition),[2],>10^11
same,k3 (rate of recovery),[2],<1e-12 min⁻¹
same,kiapp (apparent rate of enzyme inactivation),[2],0.86 ± 0.03 min⁻¹
same,"k3, single progress curve (Supplementary Figure 8)",[2],~ 0 min-1
same,"kiapp, single progress curve (Supplementary Figure 8)",[2],0.86 min⁻¹ and 0.92 min⁻¹ and 0.83 min⁻¹
same,Ki,[3]; [12],704 ± 58.5 µM
same,increase in Ki / loss of affinity compared to WT,[3],38 fold
same,Ki,[4]; [13],13.8 ± 1.14 µM
same,Ki,[4]; [14],13.8 ± 1.1 µM
same,Ki,[5]; [15],12.4 ± 1.83 µM
same,Ki,[5]; [16],12.4 ± 1.8 µM
same,Ki,"[6]; Ki (Supplementary Figure 6), S653T, fit of % activity remaining vs [I], two independent replicates",240 ± 25.5 µM
same,Ki,[6]; [17],240 ± 26 µM
same,increase in Ki compared to WT,[6]; S653T vs WT,more than 10 fold
same,k3 (rate of recovery),[7],NAI
same,kiapp (apparent rate of enzyme inactivation),[7],NAI
same,kiapp/k3 (efficiency of accumulative inhibition),[7],NAI
same,k3 (rate of recovery),[8],<1e-12 min⁻¹
same,kiapp (apparent rate of enzyme inactivation),[8],0.26 ± 0.008 min⁻¹
same,kiapp/k3 (efficiency of accumulative inhibition),[8],>10^11
same,"k3, single progress curve (Supplementary Figure 8)",[8],~ 0 min-1
same,"kiapp, single progress curve (Supplementary Figure 8)",[8],0.25 min-1 (2×) and 0.26 min-1
same,k3 (rate of recovery),[9],<1e-12 min⁻¹
same,kiapp (apparent rate of enzyme inactivation),[9],0.27 ± 0.012 min⁻¹
same,kiapp/k3 (efficiency of accumulative inhibition),[9],>10^11
same,"k3, single progress curve (Supplementary Figure 8)",[9],~ 0 min-1
same,"kiapp, single progress curve (Supplementary Figure 8)",[9],0.29 min-1 and 0.28 min-1 (2×)
same,kiapp/k3 (efficiency of accumulative inhibition),[10],>10^11
same,k3 (rate of recovery),[10],<1e-12 min⁻¹
same,kiapp (apparent rate of enzyme inactivation),[10],0.37 ± 0.017 min⁻¹
same,"k3, single progress curve (Supplementary Figure 8)",[10],~ 0 min-1
same,"kiapp, single progress curve (Supplementary Figure 8)",[10],0.34 min⁻¹ and 0.38 min⁻¹ and 0.39 min⁻¹
"COc1cc(OC)nc(Oc2cccc(Oc3nc(OC)cc(OC)n3)c2C(=O)O)n1 [BS, bispyribac]",Ki,[1]; [11],0.041 ± 0.006 µM
same,kiapp/k3 (efficiency of accumulative inhibition),[2],18
same,k3 (rate of recovery),[2],0.018 ± 0.002 min⁻¹
same,kiapp (apparent rate of enzyme inactivation),[2],0.32 ± 0.03 min⁻¹
same,"k3, single progress curve (Supplementary Figure 8)",[2],0.022 min⁻¹ and 0.018 min⁻¹ and 0.014 min⁻¹
same,"kiapp, single progress curve (Supplementary Figure 8)",[2],0.38 min⁻¹ and 0.28 min⁻¹ and 0.3 min⁻¹
same,Ki,"[3]; Ki (Supplementary Figure 6), W574L, fit of % activity remaining vs [I], two independent replicates",6.11 ± 0.988 µM
same,Ki,[3]; [12],6.1 ± 1 µM
same,increase in Ki / loss of affinity compared to WT,[3],150 fold
same,Ki,[4]; [13],0.115 ± 0.0134 µM
same,Ki,[4]; [14],0.115 ± 0.013 µM
same,loss of affinity,[4]; P197L vs WT,~ 50%
same,Ki,[5]; [15],0.106 ± 0.00483 µM
same,Ki,[5]; [16],0.106 ± 0.0048 µM
same,increase in Ki / loss of affinity compared to WT,[5]; P197T vs WT,around three-fold
same,loss of affinity,[5]; P197T vs WT,~ 50%
same,Ki,[6]; [17],0.09 ± 0.0131 µM
same,loss of affinity,[6]; S653T vs WT,~ 50%
same,accumulative inhibition (in words),[7],irreversible; also recorded: still can promote accumulative inhibition
same,k3 (rate of recovery),[7],<1e-12 min⁻¹
same,kiapp (apparent rate of enzyme inactivation),[7],0.03 ± 0.006 min⁻¹
same,kiapp/k3 (efficiency of accumulative inhibition),[7],>10^11
same,"k3, single progress curve (Supplementary Figure 8)",[7]; [18],~ 0 min-1
same,"kiapp, single progress curve (Supplementary Figure 8)",[7]; [18],0.043 min⁻¹ and 0.026 min⁻¹ and 0.025 min⁻¹
same,k3 (rate of recovery),[8],0.037 ± 0.003 min⁻¹
same,kiapp (apparent rate of enzyme inactivation),[8],1.15 ± 0.09 min⁻¹
same,kiapp/k3 (efficiency of accumulative inhibition),[8],31
same,"k3, single progress curve (Supplementary Figure 8)",[8],0.043 min⁻¹ and 0.036 min⁻¹ and 0.032 min⁻¹
same,"kiapp, single progress curve (Supplementary Figure 8)",[8],1.33 min⁻¹ and 1.1 min⁻¹ and 1.03 min⁻¹
same,k3 (rate of recovery),[9],0.031 ± 0.004 min⁻¹
same,kiapp (apparent rate of enzyme inactivation),[9],1.14 ± 0.11 min⁻¹
same,kiapp/k3 (efficiency of accumulative inhibition),[9],37
same,"k3, single progress curve (Supplementary Figure 8)",[9],0.035 min-1 (2×) and 0.023 min-1
same,"kiapp, single progress curve (Supplementary Figure 8)",[9],1.09 min⁻¹ and 0.98 min⁻¹ and 1.34 min⁻¹
same,increase in efficiency of accumulative inhibition compared to WT,[9]; P197 mutant vs WT (kiapp/k3),two-fold
same,kiapp/k3 (efficiency of accumulative inhibition),[10],39
same,efficiency of accumulative inhibition (kiapp/k3) compared to WT (in words),[10]; S653T vs WT,increased
same,k3 (rate of recovery),[10],0.017 ± 0.001 min⁻¹
same,kiapp (apparent rate of enzyme inactivation),[10],0.66 ± 0.04 min⁻¹
same,"k3, single progress curve (Supplementary Figure 8)",[10],0.018 min⁻¹ and 0.019 min⁻¹ and 0.015 min⁻¹
same,"kiapp, single progress curve (Supplementary Figure 8)",[10],0.59 min⁻¹ and 0.71 min⁻¹ and 0.69 min⁻¹
